Legend:
HT-22 cells [1] = test: xCELLigence real-time cell impedance measurement; type: cell-based, mouse; settings: ≥30 µM CE3F4 (30 and 100 μM), erastin 1 μM
Description: Cell viability and metabolic activity of cells was first assessed using a colorimetric 3-(4,5-dimethylthiazol-2-yl)-2,5-diphenyltetrazolium Bromide (MTT) (Sigma–Aldrich Chemie GmbH, Steinheim, Germany, #M5655) reduction assay. Cells in a 96-well plate format (8–10,000 cells/well) were incubated with the MTT solution (0.5 mg/mL) for a maximum of 1 h at 37 °C. Afterward, the MTT-containing solution was entirely removed, and the 96-well plate was incubated at −80 °C for at least 2 h. To allow formazan to uniformly disperse in the medium, dimethyl sulfoxide (DMSO) (Sigma–Aldrich Chemie GmbH, Steinheim, Germany, #D8418, Lot# SHBH9942) was administered to the cells for 1 h at 37 °C with continuous shaking. The absorbance values were determined by Synergy™H1 (Bad Friedrichshall, Germany) Hybrid MultiMode Reader at 570 nm with a 630 nm reference filter. The absorbance values of untreated healthy cells or cells treated with DMSO 1% (used as a solvent for various pharmacological applications) were regarded as 100% of cell viability. […] HT-22 cells were treated with the following conditions: control condition (solvent), drug of interest, erastin, and pre- or co-treatment with erastin and drug of interest. […] Continuous cell monitoring was performed by using an E-plate 96 and the cellular impedance or cell resistance was assessed every 15 min for 24 h.

HT-22 cells [2] = test: Brightfield images of cell morphology; type: cell-based, mouse; settings: 100 μM CE3F4 + erastin 1 μM
HT-22 cells [3] = test: Mitochondrial morphology (MitoTracker Deep Red, categories I-III); type: cell-based, mouse
Description: Mitochondrial morphology was assessed using imaging of HT-22 cells stained with MitoTracker™Deep Red FM (Invitrogen, Oregon City, OR, USA, #M22426). Cells were treated with either erastin 1 µM, CE3F4 100 µM, or co-treated with erastin 1 µM and CE3F4 100 μM for 18 h. After the treatment, cells were incubated with 200 nM MitoTracker™Deep Red FM for 30 min at 37 °C. Untreated cells were included as controls. 4% paraformaldehyde (PFA) was used for fixation and detection of the MitoTracker fluorescence was achieved by 620 nm (excitation) and 700 ± 75 nm (detection). 500 cells per condition were counted and grouped into three different categories, based on their mitochondrial morphology/shape. The analysis and categorization of mitochondria was done by an investigator without previous knowledge of the various experimental conditions. Category I included healthy cells with mitochondria that form an elongated tubular network that is distributed equally throughout the cytosol. It could also include short mitochondria, but distributed in the cytosol. On the other hand, Category II included cells which contained large, and fragmented/granulated mitochondria around the nucleus. […] Category III represented damaged and dying cells with observed small rounded mitochondria of varying sizes and in proximity to the nucleus.. At least three independent experiments were performed.

HT-22 cells [4] = test: Extracellular flux analysis (Seahorse), oxygen consumption rate; type: cell-based, mouse
Description: Cellular Oxygen Consumption Rate (OCR) was measured by using an XFe96 extracellular flux analyzer (Seahorse Bioscience, Billerica, MA, USA) which also entailed the mitochondrial stress test as described previously. HT-22 cells (10,000 cells/well) were seeded onto the XFe96-well cell culture microplate and incubated at 37 °C, 5% CO2. 24 h before the assay, the growth medium was replaced with a fresh medium containing either DMSO 1%, erastin 1 µM, CE3F4 alone, ESI-05 alone or a co-treatment of erastin with either CE3F4 or ESI-05. Cells in 180 μL of assay non-buffered DMEM medium supplemented with 2 mM glutamine, 4.5 g/L glucose and 1 mM pyruvate, pH 7.35 were incubated for 1 h in a CO2 free incubator at 37 °C. Basal respiration was measured before injecting the inhibitors that included; oligomycin (4 μM; port A)—an ATP synthase inhibitor; 2,4-dinitrophenol (DNP) (Sigma–Aldrich Chemie GmbH, Steinheim, Germany, #34334) (50 μM; port B)—a mitochondrial oxidative phosphorylation uncoupler; and rotenone (Sigma–Aldrich Chemie GmbH, Steinheim, Germany, #R8875) together with antimycin A (Sigma–Aldrich Chemie GmbH, Steinheim, Germany, #A8674) 0.1 μM and 1 μM; port C)—complex I and complex III inhibitors. By using the BCA assay, OCR measurements were normalized to the protein amount in every well. Three independent experiments with six wells per condition were performed, and a one-way ANOVA test was used to determine statistical significance among different groups.

Epac1 = settings: CE3F4, Epac1 inhibitor; cited from earlier work
HT-22 cells [5] = test: Lipid peroxidation, BODIPY FACS; settings: 100 μM CE3F4 + erastin 1 μM
Description: (§1) Flow cytometry analysis using the CytoFLEXS benchtop flow cytometer (Beckman Coulter Life Sciences, Indianapolis, IN, USA) was used to evaluate intracellular parameters that are associated with not only oxidative stress but also mitochondrial dysfunction, and cell death. HT-22 cells (40,000 cells/well) seeded in 24-well plates were treated with various conditions. Treatment groups included: control condition (DMSO 1%), erastin 1 µM or 1.5 µM, CE3F4 100 µM, and co-treatment of erastin and CE3F4. Three separate wells were analyzed for each condition and the same number of counts (10,000/well) were measured by flow cytometry. At least three independent experiments were performed, and the Kaluza Analysis 1.5 software was employed for quantification of data.
The staining dye BODIPY 2 μM (Invitrogen, Karlsruhe, Germany, # D3861, Lot # 1890330) was used to estimate lipid peroxidation. Erastin treatment was done for 4 h. HT-22 cells were then stained for 30 min at RT, followed by a one-time wash with PBS and finally analyzed. Fluorescence excitation and detection were done at 488 nm and 530 nm respectively.

HT-22 cells [6] = test: Mitochondrial superoxide, MitoSOX FACS
Description: as §1
MitoSOX dye (Invitrogen, Oregon City, OR, USA, #M36008, Lot#1924466) was used to evaluate mitochondrial ROS. The MitoSOX dye is able to permeate live cells and also selectively target mitochondria where it is swiftly oxidized by superoxides but not by other reactive oxygen species. […] Incubation of HT-22 cells with MitoSOX™ 1.25 μM dye was done for 30 min at 37 °C. Fluorescence excitation and detection were done at 488 nm and 690/50 nm respectively.

HT-22 cells [7] = test: Mitochondrial membrane potential, TMRE FACS; settings: for effect on erastin-induced ΔΨm loss: no significant difference to control
Description: as §1
Staining with TMRE™ dye (tetramethylrhodamine-ethyl ester; Invitrogen, Oregon City, OR, USA, #T669) was used to determine loss of mitochondrial membrane potential (MMP) (ΔΨm). […] Collected cells were incubated for 20 min with TMRE 0.2 μM at 37 °C. Fluorescence excitation and detection were done at 488 nm 690/50 nm respectively.

HT-22 cells [8] = test: Cell death assessment, FACS analysis of PI staining
Description: as §1
The amount of cell death after stimulation with erastin for 16–17 h was assessed by incubating trypsonized HT-22 cell suspension with propidium iodide (PI) (Invitrogen, Oregon City, OR, USA, #V13242, Lot #2008168) in a binding buffer. Incubation with the dye was for 30 min at RT. Fluorescence was detected at 494/518 and 535/617 for FITC and PI respectively.

[9] = CE3F4 + erastin 1 μM vs erastin alone

CC1CCc2c(cc(Br)c(F)c2Br)N1C=O (centres unmarked) [CE3F4]
protection against erastin-induced cell death (cell impedance) (HT-22 cells [1]): markedly prevented erastin-induced cell death
effect on erastin-induced alteration in cell morphology (HT-22 cells [2]): prevented
mitochondrial morphology, category III (HT-22 cells [3]; 30 µM CE3F4 + erastin 1 μM vs erastin alone): significant decrease of category III mitochondrial fragmentation
mitochondrial morphology (HT-22 cells [3]; 100 μM CE3F4 + erastin 1 μM): completely abolished the effects of erastin on mitochondrial morphology
mitochondrial morphology (HT-22 cells [3]; CE3F4 alone (100 µM)): did not alter mitochondrial morphology
maximal respiration (HT-22 cells [4]; 100 μM CE3F4 alone): increased maximal respiration
ATP-linked OCR (HT-22 cells [4]; [9]): did not reach statistical significance
basal OCR (HT-22 cells [4]; [9]): did not reach statistical significance
maximal OCR (HT-22 cells [4]; [9]): significantly increased
IC50 (Epac1): 23 ± 3 µM
effect on erastin-induced lipid peroxidation (HT-22 cells [5]): significantly attenuated
mitochondrial superoxide levels (HT-22 cells [6]; 30 μM CE3F4 alone): shift towards the intermediate mitochondrial superoxide
mitochondrial superoxide levels (intermediate) (HT-22 cells [6]; 100 μM CE3F4 alone, compared with 30 μM): further increased
effect on erastin-mediated mitochondrial superoxide levels (HT-22 cells [6]; CE3F4 30 μM + erastin 1 μM): did not affect erastin-mediated effects on mitochondrial superoxide levels
effect on erastin-mediated mitochondrial superoxide levels (HT-22 cells [6]; CE3F4 100 μM + erastin): significantly attenuated the increase in high mitochondrial superoxide levels
effect on erastin-induced ΔΨm loss (HT-22 cells [7]; 100 µM CE3F4 + erastin 1 μM): significantly attenuated ΔΨm loss
effect on erastin-induced ΔΨm loss (HT-22 cells [7]; 100 µM CE3F4 + erastin 1.5 μM): significantly attenuated ΔΨm loss
mitochondrial membrane potential (ΔΨm) (HT-22 cells [7]; CE3F4 alone): slight hyperpolarization
effect on erastin-induced cell death (PI staining) (HT-22 cells [8]; co-treatment 30 μM CE3F4 + erastin 1 μM): markedly attenuated
effect on erastin-induced cell death (PI staining) (HT-22 cells [8]; co-treatment 100 μM CE3F4 + erastin 1 μM): markedly attenuated

Reference: publication PMC8868285, “Pharmacological Inhibition of Epac1 Averts Ferroptosis Cell Death by Preserving Mitochondrial Integrity” (Antioxidants, 2022)
